Results on four compounds are retold here after patent US5641779A, “Selective ligands of 5-HT1D -5-HT1B receptors derived from indolepiperazine which are useful medicaments” (Pierre Fabre Medicament, priority 1992, dated 1997).

Each structure is given as a SMILES string. Counter-ions that a name gives are not always drawn. Like-named read-outs stand apart in the source and are kept apart here.

One test concerns the target T1, 5-HT1A (Rattus norvegicus, UniProt P19327).
T1 construct: from tissue; host or cells: rat frontal cortex
T1 sequence (P19327 1-422): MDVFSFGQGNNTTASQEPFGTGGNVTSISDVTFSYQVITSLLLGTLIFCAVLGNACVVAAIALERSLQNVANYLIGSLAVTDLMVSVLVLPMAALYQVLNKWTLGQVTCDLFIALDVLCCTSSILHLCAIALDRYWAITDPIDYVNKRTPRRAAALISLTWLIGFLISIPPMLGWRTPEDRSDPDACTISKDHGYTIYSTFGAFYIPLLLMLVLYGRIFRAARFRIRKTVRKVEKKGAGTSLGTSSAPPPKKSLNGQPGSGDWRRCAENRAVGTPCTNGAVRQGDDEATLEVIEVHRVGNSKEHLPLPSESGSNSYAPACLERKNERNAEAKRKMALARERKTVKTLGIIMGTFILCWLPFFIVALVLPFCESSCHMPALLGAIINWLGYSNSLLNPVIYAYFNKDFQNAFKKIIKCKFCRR
Description: 5-HT1A receptor binding (Peroutka). As to the method:
(§1) The IC50 values of the various products which form part of this invention for the other receptors were measured according to the techniques described in the following references:
(§2) Peroutka S. J. Pharmacological differentiation and characterization of 5-HT1A, 5-HT1B and 5-HT1C binding sites in rat frontal cortex. J. Neurochem., 45, 529-540, 1986.

A further test deals with T2, D2-Dopaminergic receptor (Canis lupus familiaris, UniProt Q9GJU1).
T2 construct: from tissue
Description: D2-Dopaminergic receptor binding (Nisnik et al.). Here is the method: as §1
Nisnik H. B., Grigoriadis D. E., Pri-Bar I., Buckman O. and Seeman P. Dopamine D2 receptors selectively labeled by a benzamide neuroleptic: ^3 H-YM-09159-2 Naunyn-Schmiedeberg's Arch. Pharmacol. 329, 333-343, 1985.

A further test deals with T3, 5-HT2 (Rattus norvegicus, UniProt P14842).
T3 construct: from tissue
Briefly: 5-HT2 receptor binding (Leysen et al.). The following applies: 3H-ketanserine (title of cited method). As to the method:
as §1
Leysen J. E., Niemegeers C. J. E., Van Nueten J. M. and Laduron P.M. ^3 H-ketanserine (R 41468), a selective ^3 H ligand for serotonin2 receptor binding sites. Mol. Pharmacol., 21, 301-330, 1982.

In another test the target is T4, 5-HT1C (Sus scrofa, UniProt K7GSR7).
T4 construct: serotonergic ligands to the porcine choroid plexus; from tissue; host or cells: porcine choroid plexus
T4 sequence (K7GSR7 1-457): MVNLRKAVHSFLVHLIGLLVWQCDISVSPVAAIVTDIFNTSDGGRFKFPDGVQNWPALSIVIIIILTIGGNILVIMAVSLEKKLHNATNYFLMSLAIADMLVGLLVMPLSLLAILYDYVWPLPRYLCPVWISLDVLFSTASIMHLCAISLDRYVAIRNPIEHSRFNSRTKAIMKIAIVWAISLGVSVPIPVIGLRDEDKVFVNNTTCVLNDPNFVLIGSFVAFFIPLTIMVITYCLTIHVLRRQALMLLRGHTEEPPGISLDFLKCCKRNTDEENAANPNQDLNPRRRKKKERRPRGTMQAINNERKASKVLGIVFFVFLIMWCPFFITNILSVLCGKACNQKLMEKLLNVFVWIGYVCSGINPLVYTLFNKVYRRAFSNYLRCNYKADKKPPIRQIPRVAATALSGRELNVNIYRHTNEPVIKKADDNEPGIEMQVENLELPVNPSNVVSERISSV
Description: 5-HT1C receptor binding (Pazos et al.). Details: species or system porcine. Here is the method: as §1
Pazos A., Hoyer D. and Palacios J. M. The binding sites of serotonergic ligands to the porcine choroid plexus: characterization of a new type of serotonin recognition site. Eur. J. Pharmacol., 106, 539-546, 1985.

The next test addresses T5, α2-Adrenergic receptor (Rattus norvegicus, UniProt P22909).
T5 construct: in the rat brain; from tissue; host or cells: rat brain
T5 sequence (P22909 1-465): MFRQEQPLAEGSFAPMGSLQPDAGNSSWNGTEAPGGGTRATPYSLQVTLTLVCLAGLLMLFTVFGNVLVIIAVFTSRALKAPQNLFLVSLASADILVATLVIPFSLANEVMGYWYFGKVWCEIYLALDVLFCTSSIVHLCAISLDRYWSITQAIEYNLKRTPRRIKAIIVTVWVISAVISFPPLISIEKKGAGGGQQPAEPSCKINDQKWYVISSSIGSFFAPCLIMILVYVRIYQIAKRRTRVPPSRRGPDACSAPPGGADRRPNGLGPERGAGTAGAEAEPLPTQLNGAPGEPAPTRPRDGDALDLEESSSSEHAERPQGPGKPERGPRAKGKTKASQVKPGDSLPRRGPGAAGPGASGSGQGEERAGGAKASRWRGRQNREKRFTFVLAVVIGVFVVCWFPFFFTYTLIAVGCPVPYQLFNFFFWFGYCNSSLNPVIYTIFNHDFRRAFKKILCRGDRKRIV
Description: α2-Adrenergic receptor binding (Mallard et al.). As to the method:
as §1
Mallard N. J., Tyacke R., Hudson A. L. and Nutt D. S. Comparative binding studies of ^3 -idazoxan and ^3 -RX821002 in the rat brain. Brit. J. Pharmacol. 102, 221P, 1991.

The target in the next test is T6, 5-HT1B (Rattus norvegicus, UniProt P28564).
T6 construct: from tissue; host or cells: rat frontal cortex
Description: 5-HT1B receptor binding (Peroutka). As to the method:
as §1, §2

In a further test the target is α1-Adrenergic receptor. Description: α1-Adrenergic receptor binding (Leslie Morrow and Creese). The following applies: rat brain (title of cited method). Here is the method:
as §1
Leslie Morrow A. and Creese I. Characterization of α1-adrenergic receptor subtypes in rat brain: a reevaluation of ^3 H-WB4101 and ^3 H prazosin binding. Mol. Pharmacol. 29, 321-330, 1986.

The next test has as its system 5-HT1D. Briefly: Affinity for 5-HT1D receptors (3H-5-HT binding, sheep caudate nuclei membranes). Particulars: Ratio of the IC50 values for the 5HT1A and 5HT1D receptors. As to the method: This study is carried out according to the technique described by Herrick-Davis and Titeler (J. Neurochem. 50, 1624-1631, 1988).
Preparation of the membranes:
Sheep brains are removed at the local abattoir and transported in ice. The caudate nuclei are removed, weighed and homogenized with a Polytron for 20 sec. (speed 6-7) in 20 volumes of Tris-HCl 50 mM, pH 7.7. The homogenate is centrifuged for 10 min at 48,000 g with an L5 50E centrifuge (Beckman).
The pellet, taken up in 20 volumes of Tris-HCl 50 mM, pH 7.7, is placed in a water bath at 37° C. for 10 min and then recentrifuged for 10 min at 48,000 g. The pellet then obtained is immediately frozen in fractions containing 0.5 g of tissue.
The pellet is defrosted and homogenized with a Dounce in 80 volumes of Tris-HCl, 50 mM pH 7.7 containing 4 mM CaCl2, 10μM of pargyline and 0.1% of ascorbic acid.
Binding is carried out at 25° C. by incubating for 30 min:
0.1 ml of buffer or 10 μM, as final concentration, of sumatriptan, in order to obtain the non-specific binding, or the product which forms part of this invention at various concentrations (between 10^-10 and 10^-6 M).
0.8 ml of membrane suspension
0.1 ml of ^3 H-5-HT (15 to 30 Ci/mM, New England Nuclear France)
The incubation is brought to an end by rapid filtration through GF/B filters and rinsing with 3 times 3 ml of ice-cold buffer, using a harvester manufactured by Brandel which makes it possible to filter 48 samples. The filters are introduced into vials containing 4 ml of emulsifier-safe liquid scintillant (Packard) and the radioactivity measured with a Tri-carb 4640 counter (Packard).
The IC50 (concentration which inhibits the specific affinity by 50%) is determined graphically.

Where [1] appears, read: 3H-YM-09159-2 (title of cited method), read-out: IC50 D2.
The mark [2] stands for this setting: porcine choroid plexus (title of cited method), read-out: IC50 5-HT1C.
The mark [3] stands for this setting: rat brain (title of cited method), read-out: IC50 α2.

T2 sequence (Q9GJU1 whole entry): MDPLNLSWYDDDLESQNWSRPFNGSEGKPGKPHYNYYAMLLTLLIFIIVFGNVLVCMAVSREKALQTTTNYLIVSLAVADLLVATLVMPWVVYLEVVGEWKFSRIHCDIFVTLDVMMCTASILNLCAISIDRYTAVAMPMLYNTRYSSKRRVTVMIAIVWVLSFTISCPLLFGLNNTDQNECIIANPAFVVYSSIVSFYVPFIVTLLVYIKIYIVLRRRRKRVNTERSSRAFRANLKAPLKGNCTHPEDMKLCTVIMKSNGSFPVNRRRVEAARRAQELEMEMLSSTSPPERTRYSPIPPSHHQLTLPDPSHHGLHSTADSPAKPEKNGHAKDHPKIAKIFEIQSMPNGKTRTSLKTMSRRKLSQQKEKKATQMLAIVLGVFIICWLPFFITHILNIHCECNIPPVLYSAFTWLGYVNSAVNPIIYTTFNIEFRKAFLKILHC
T3 sequence (P14842 whole entry): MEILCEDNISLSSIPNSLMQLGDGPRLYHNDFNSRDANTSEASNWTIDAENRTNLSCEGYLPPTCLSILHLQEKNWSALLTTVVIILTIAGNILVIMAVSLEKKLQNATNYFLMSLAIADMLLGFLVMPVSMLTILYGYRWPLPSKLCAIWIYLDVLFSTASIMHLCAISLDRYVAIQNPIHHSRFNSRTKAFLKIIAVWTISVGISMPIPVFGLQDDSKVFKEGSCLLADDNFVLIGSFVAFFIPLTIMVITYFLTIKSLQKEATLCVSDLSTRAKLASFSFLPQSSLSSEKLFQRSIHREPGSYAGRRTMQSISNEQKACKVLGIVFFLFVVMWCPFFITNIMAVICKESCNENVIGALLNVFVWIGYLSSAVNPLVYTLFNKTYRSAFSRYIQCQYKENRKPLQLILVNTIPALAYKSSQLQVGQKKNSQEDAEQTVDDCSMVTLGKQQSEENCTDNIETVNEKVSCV
T6 sequence (P28564 whole entry): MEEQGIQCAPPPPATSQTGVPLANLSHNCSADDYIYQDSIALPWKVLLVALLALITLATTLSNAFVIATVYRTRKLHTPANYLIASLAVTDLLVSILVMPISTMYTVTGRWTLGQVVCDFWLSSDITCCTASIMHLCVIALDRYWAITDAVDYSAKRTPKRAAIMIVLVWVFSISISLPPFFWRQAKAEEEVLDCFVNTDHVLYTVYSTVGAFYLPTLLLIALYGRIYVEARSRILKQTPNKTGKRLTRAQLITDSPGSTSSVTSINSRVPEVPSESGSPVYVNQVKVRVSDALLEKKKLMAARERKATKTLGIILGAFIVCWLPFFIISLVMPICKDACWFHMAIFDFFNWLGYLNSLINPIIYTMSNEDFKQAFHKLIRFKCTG

As for `COc1cccc(N2CCN(C(=O)COc3ccc4[nH]cc(CCNC(=O)OC(C)(C)C)c4c3)CC2)c1` [Example 6A, 4-(m-Methoxyphenyl)-1-(tert-butoxycarbamate-tryptamine-5-carboxymethyl)piperazide hydrochloride], the concentration for half-maximal inhibition (IC50) (as a rule, the midpoint of a concentration-inhibition curve) on 5-HT1A (rat frontal cortex (title of cited method), mean, read-out: IC50 5-HT1A mean) is 0.1 µM; on D2-Dopaminergic receptor (setting [1]) it was over 1 µM; at 5-HT2, over 1 µM; on 5-HT1C (setting [2]), over 1 µM; at α2-Adrenergic receptor (setting [3]), over 1 µM; at 5-HT1B (rat frontal cortex (title of cited method), mean, read-out: IC50 5-HT1B mean), 0.0015 µM. Further, at α1-Adrenergic receptor, the IC50 is over 1 µM. For the same compound, in the test on 5-HT1D, the “Ratio 1A/1D” value turned out to be 6.3.

On to `Cc1ccccc1N1CCN(C(=O)COc2ccc3[nH]cc(CCN)c3c2)CC1` [Example 1, 4-o-Tolyl-1-.(tryptamine-5-O-carboxymethyl)-piperazide hydrochloride], for which the IC50 is 0.0235 µM on 5-HT1A; over 1 µM at D2-Dopaminergic receptor (setting [1]); over 1 µM on 5-HT2; 3 µM at 5-HT1C; over 1 µM at α2-Adrenergic receptor (setting [3]); 0.0006 µM at 5-HT1B. On α1-Adrenergic receptor, this compound had an IC50 of over 1 µM. The “Ratio 1A/1D” value in the test on 5-HT1D is recorded as 11.2.

For `NCCc1c[nH]c2ccc(OCC(=O)N3CCN(c4cccc(C(F)(F)F)c4)CC3)cc12` [Example 3, 4-(a,a,a-Trifluoro-m-tolyl)-1-(tryptamine-5-O-carboxymethyl) piperazide hydrochloride], the IC50 was 0.0335 µM on 5-HT1A; over 1 µM on D2-Dopaminergic receptor (setting [1]); over 1 µM at 5-HT2; 4 µM at 5-HT1C; over 1 µM at α2-Adrenergic receptor (setting [3]); 0.0019 µM at 5-HT1B. The IC50 at α1-Adrenergic receptor is over 1 µM. In the test on 5-HT1D, the “Ratio 1A/1D” value is given as 4.8.

`COc1cccc(N2CCN(C(=O)COc3ccc4[nH]cc(CCN)c4c3)CC2)c1` [Example 6, 4-(m-Methoxyphenyl)-1-(tryptamine-5-O-carboxymethyl) piperazide hydrochloride]: the IC50 was 0.0235 µM on 5-HT1A; over 1 µM at D2-Dopaminergic receptor; over 1 µM at 5-HT2; over 1 µM at 5-HT1C (setting [2]); over 1 µM on α2-Adrenergic receptor; 0.0011 µM on 5-HT1B. The compound further had an IC50 on α1-Adrenergic receptor of over 1 µM. Also, in the test with 5-HT1D, the “Ratio 1A/1D” value was 8.1.
